Earlier results on one molecule are cited in patent US12351592B2 (UNIVERSIDAD SANTIAGO DE CALI, priority 2019, dated 2025).

The structures appear in SMILES notation.

Turning to `CN(C)C(=N)N=C(N)N` [Metformin], the “distribution volume (Vd)” value (in vivo) is recorded as 654±358 I. For the same molecule, for the setting “slow access”, the access to erythrocytes is on record as 5 % of the blood dose.
